US12077503B2, “Substituted cyclic amides and their use as herbicides” (FMC CORPORATION, priority 2015, dated 2024)

Tests used:
Assay type in all cases: in vivo
Kochia (Kochia scoparia) [1] = assay: Test A preemergence; conditions: for Plant response rating, Kochia: 125 g ai/ha
Source text: (§1) Seeds of plant species selected from barnyardgrass (Echinochloa crus-galli), Kochia (Kochia scoparia), ragweed (common ragweed, Ambrosia elatior), ryegrass, Italian (Italian ryegrass, Lolium multiflorum), crabgrass, large (Digitaria sanguinalis), giant foxtail (Setaria faberii), green foxtail (Setaria viridis), morningglory (Ipomoea spp.), pigweed (Amaranthus retroflexus), velvetleaf (Abutilon theophrasti), wheat (Triticum aestivum), and corn (Zea mays) were planted into a blend of loam soil and sand and treated preemergence with a directed soil spray using test chemicals formulated in anon-phytotoxic solvent mixture which included a surfactant.
(§2) At the same time, plants selected from these crop and weed species and also blackgrass (Alopecurus myosuroides), and Galium (catchweed bedstraw, Galium aparine) were planted in pots containing the same blend of loam soil and sand and treated with postemergence applications of test chemicals formulated in the same manner. Plants ranged in height from 2 to 10 cm and were in the one- to two-leaf stage for the postemergence treatment. Treated plants and untreated controls were maintained in a greenhouse for approximately 10 d, after which time all treated plants were compared to untreated controls and visually evaluated for injury. Plant response ratings, summarized in Table A, are based on a 0 to 100 scale where 0 is no effect and 100 is complete control. A dash (-) response means no test result.

[2] = system: barnyardgrass (Echinochloa crus-galli); assay: Test A preemergence; conditions: for Plant response rating, Barnyardgrass: 125 g ai/ha
Source text: as §1, §2

[3] = system: giant foxtail (Setaria faberii); assay: Test A preemergence; conditions: for Plant response rating, Foxtail, Giant: 125 g ai/ha
Source text: as §1, §2

[4] = system: pigweed (Amaranthus retroflexus); assay: Test A preemergence; conditions: for Plant response rating, Pigweed: 125 g ai/ha
Source text: as §1, §2

[5] = system: ragweed (common ragweed, Ambrosia elatior); assay: Test A preemergence; conditions: for Plant response rating, Ragweed: 125 g ai/ha
Source text: as §1, §2

[6] = system: ryegrass, Italian (Italian ryegrass, Lolium multiflorum); assay: Test A preemergence; conditions: for Plant response rating, Ryegrass, Italian: 125 g ai/ha
Source text: as §1, §2

[7] = system: Galium (catchweed bedstraw, Galium aparine); assay: Test A postemergence
In short: (§3)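 Ratings of 0 (no effect) to 100 (complete control) come from visual comparison with untreated controls roughly 10 d after treatment. Test chemicals, formulated in a non-phytotoxic solvent mixture with surfactant, were applied either as a preemergence directed soil spray on seeded soil or postemergence to one- to two-leaf plants 2 to 10 cm tall.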

Kochia (Kochia scoparia) [8] = assay: Test A postemergence
In short: as §3

[9] = system: barnyardgrass (Echinochloa crus-galli); assay: Test A postemergence
In short: as §3

[10] = system: blackgrass (Alopecurus myosuroides); assay: Test A postemergence
In short: as §3

corn (Zea mays) = assay: Test A postemergence
In short: as §3

[11] = system: giant foxtail (Setaria faberii); assay: Test A postemergence
In short: as §3

[12] = system: pigweed (Amaranthus retroflexus); assay: Test A postemergence
In short: as §3

[13] = system: ragweed (common ragweed, Ambrosia elatior); assay: Test A postemergence
In short: as §3

[14] = system: ryegrass, Italian (Italian ryegrass, Lolium multiflorum); assay: Test A postemergence
In short: as §3

[15] = system: wheat (Triticum aestivum); assay: Test A postemergence
In short: as §3

[16] = system: barnyardgrass (Echinochloa crus-galli); assay: Test B flooded paddy test; conditions: Flood, 250 g ai/ha; 0 to 100 scale where 0 is no effect and 100 is complete control; 13 to 15 d
In short: (§4)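 Rating scale 0–100 (visual, vs untreated controls) after a 13–15 d greenhouse period; application to the flood layer, 3 cm above soil and maintained; plants at 2-leaf stage when treated.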

[17] = system: ducksalad (Heteranthera limosa); assay: Test B flooded paddy test; conditions: Flood, 250 g ai/ha; 0 to 100 scale where 0 is no effect and 100 is complete control; 13 to 15 d
In short: as §4

rice (Oryra sativa) = assay: Test B flooded paddy test; conditions: Flood, 250 g ai/ha; 0 to 100 scale where 0 is no effect and 100 is complete control; 13 to 15 d
In short: as §4

[18] = system: sedge, umbrella (small-flower umbrella sedge, Cyperus difformis); assay: Test B flooded paddy test; conditions: Flood, 250 g ai/ha; 0 to 100 scale where 0 is no effect and 100 is complete control; 13 to 15 d
In short: as §4

[19] = preemergence, 0 to 100 scale (0 no effect, 100 complete control)
[20] = Preemergence, 500 g ai/ha, 0 is no effect, 100 is complete control
[21] = 500 g ai/ha, postemergence, 0 to 100 scale, 0 no effect, 100 complete control
[22] = Postemergence, 125 g ai/ha, visual injury, 0 to 100 scale (0 no effect, 100 complete control), approx. 10 d
[23] = Preemergence, visual injury after approximately 10 d, 0 to 100 scale where 0 is no effect and 100 is complete control
[24] = Preemergence, 500 g ai/ha, visual injury approx. 10 d
[25] = 125 g ai/ha, postemergence, visual rating after approx. 10 d, 0 to 100 scale (0 no effect, 100 complete control)
[26] = Postemergence, 500 g ai/ha, 0 to 100 scale where 0 is no effect and 100 is complete control

`O=C1NCC(c2ccccc2-c2ccccc2)C1C(=O)Nc1ccc(F)c(F)c1F` (racemic) [Compound 382] was tested, and the “Plant response rating, Kochia” value (Kochia (Kochia scoparia) [1]; [19]) was 0, the “Kochia plant response rating (0 to 100 scale)” value (Kochia (Kochia scoparia) [1]; [20]) was 0 and the “Plant response rating, Barnyardgrass” value [2, 19] was 0. The “Barnyardgrass plant response rating (0 to 100 scale)” value [2, 20] was 50, the “Plant response rating, Foxtail, Giant” value [3, 19] was 0 and the “Foxtail, Giant plant response rating (0 to 100 scale)” value [3, 20] was 30. For the same compound, the “Plant response rating, Pigweed” value [4, 19] was 0, the “Pigweed plant response rating (0 to 100 scale)” value [4, 20] was 0 and the “Plant response rating, Ragweed” value [5, 19] was 0. The “Ragweed plant response rating (0 to 100 scale)” value [5, 20] was 0, the “Plant response rating, Ryegrass, Italian” value [6, 19] was 0 and the “Ryegrass, Italian plant response rating (0 to 100 scale)” value [6, 20] was 0. For the same compound, the “Plant response rating, Galium” value [7, 21] was 0, the “Plant response rating, Galium” value [7, 22] was 0 and the “Plant response rating, Kochia” value (Kochia (Kochia scoparia) [8]; [21]) was 0. For the same compound, the “Plant response rating, Kochia” value (Kochia (Kochia scoparia) [8]; [22]) was 0, the “Plant response rating, Barnyardgrass” value [9, 21] was 20 and the “Plant response rating, Barnyardgrass” value [9, 22] was 0. For the same compound, the “Plant response rating, Blackgrass” value [10, 21] was 0, the “Plant response rating, Blackgrass” value [10, 22] was 0 and the “Plant response rating, Corn” value (corn (Zea mays); [21]) was 0. The “Plant response rating, Corn” value (corn (Zea mays); [22]) was 0, the “Plant response rating, Foxtail, Giant” value [11, 21] was 20 and the “Plant response rating, Foxtail, Giant” value [11, 22] was 0. The “Plant response rating, Pigweed” value [12, 21] was 0, the “Plant response rating, Pigweed” value [12, 22] was 0 and the “Plant response rating, Ragweed” value [13, 21] was 0. For the same compound, the “Plant response rating, Ragweed” value [13, 22] was 0, the “Plant response rating, Ryegrass, Italian” value [14, 21] was 0 and the “Plant response rating, Ryegrass, Italian” value [14, 22] was 0. The “Plant response rating, Wheat” value [15, 21] was 0, the “Plant response rating, Wheat” value [15, 22] was 0 and the “Plant response rating, Barnyardgrass” value [16] was 0. The “Plant response rating, Ducksalad” value [17] was 0, the “Plant response rating, Rice” value (rice (Oryra sativa)) was 0 and the “Plant response rating, Sedge, Umbrella” value [18] was 0.

`C#CCN1CC(c2cccc(C(F)(F)F)c2)C(C(=O)Nc2ccccc2F)C1=O` (stereo not drawn) [Compound 607] was tested, and the “Plant response rating, Kochia” value (Kochia (Kochia scoparia) [1]; [23]) was 0, the “Kochia plant response rating (0 to 100 scale, 0 is no effect, 100 is complete control)” value (Kochia (Kochia scoparia) [1]; [24]) was 0 and the “Plant response rating, Barnyardgrass” value [2, 23] was 0. For the same compound, the “Barnyardgrass plant response rating (0 to 100 scale, 0 is no effect, 100 is complete control)” value [2, 24] was 30, the “Plant response rating, Foxtail, Giant” value [3, 23] was 80 and the “Foxtail, Giant plant response rating (0 to 100 scale, 0 is no effect, 100 is complete control)” value [3, 24] was 90. The “Plant response rating, Pigweed” value [4, 23] was 0, the “Pigweed plant response rating (0 to 100 scale, 0 is no effect, 100 is complete control)” value [4, 24] was 0 and the “Plant response rating, Ragweed” value [5, 23] was 0. For the same compound, the “Ragweed plant response rating (0 to 100 scale, 0 is no effect, 100 is complete control)” value [5, 24] was 0, the “Plant response rating, Ryegrass, Italian” value [6, 23] was 0 and the “Ryegrass, Italian plant response rating (0 to 100 scale, 0 is no effect, 100 is complete control)” value [6, 24] was 0. For the same compound, the “Plant response rating, Galium” value [7, 25] was 0, the “Plant response rating, Galium” value [7, 26] was 0 and the “Plant response rating, Kochia” value (Kochia (Kochia scoparia) [8]; [25]) was 0. The “Plant response rating, Kochia” value (Kochia (Kochia scoparia) [8]; [26]) was 0, the “Plant response rating, Barnyardgrass” value [9, 25] was 20 and the “Plant response rating, Barnyardgrass” value [9, 26] was 60. The “Plant response rating, Blackgrass” value [10, 25] was 0, the “Plant response rating, Blackgrass” value [10, 26] was 0 and the “Plant response rating, Corn” value (corn (Zea mays); [25]) was 0. The “Plant response rating, Corn” value (corn (Zea mays); [26]) was 0, the “Plant response rating, Foxtail, Giant” value [11, 25] was 20 and the “Plant response rating, Foxtail, Giant” value [11, 26] was 60. The “Plant response rating, Pigweed” value [12, 25] was 0, the “Plant response rating, Pigweed” value [12, 26] was 0 and the “Plant response rating, Ragweed” value [13, 25] was 0. For the same compound, the “Plant response rating, Ragweed” value [13, 26] was 0, the “Plant response rating, Ryegrass, Italian” value [14, 25] was 0 and the “Plant response rating, Ryegrass, Italian” value [14, 26] was 0. For the same compound, the “Plant response rating, Wheat” value [15, 25] was 0, the “Plant response rating, Wheat” value [15, 26] was 20 and the “Plant response rating, Barnyardgrass” value [16] was 0. For the same compound, the “Plant response rating, Ducksalad” value [17] was 50, the “Plant response rating, Rice” value (rice (Oryra sativa)) was 0 and the “Plant response rating, Sedge, Umbrella” value [18] was 0.
